From patent US20240100183A1, “COMPOSITIONS COMPRISING MOLECULES FOR CYSTIC FIBROSIS TREATMENT” (UNiversity of Iowa Research Foundation, priority 2020, published 2024)
Converted amounts (≈) assume the structure as drawn. “And” between values parts separate entries of the source, which are not always exact repeats. Identical values can stand only once. Like-named read-outs stand apart in the source and are kept apart here.

Columns and labels:
[1] = Phase solubility of ivacaftor in cyclodextrin solutions; assay type: physicochemical; details: for solubility at 3 days: aqueous with cosolvent or surfactant or cyclodextrin, thermodynamic from solid
Procedure: Excess amounts of powdered ivacaftor were suspended in different concentrations of different types of CD's (up to […] in the case of βCD, and up to […] in the case of αCD, γCD, and HPβCD). The suspensions were shaken at 3000 rpm at room temperature for 3 days. Then, samples were collected and filtered, and the concentration of ivacaftor was determined using HPLC, as described below. An Agilent HPLC workstation series 1100 (Agilent Technologies, Santa Clara, CA) was used for the analysis. The column used was Waters Symmetry C18 5 μm (4.6×150 mm), and the mobile phase consisted of 6:4 acetonitrile: water with 0.1% v/v trifluoroacetic acid (TFA) at a flow rate of 1 ml/min (at 25±2° C.). Detection was carried out using an Agilent Diode array detector (DAD) at 309 nm.

[2] = Ivacaftor solubility in the release medium; assay type: physicochemical; details: release medium (polysorbate 80 in DPBS), aqueous with cosolvent or surfactant or cyclodextrin; 0.4% v/v polysorbate 80 in 1×DPBS, 37° C.
[3] = cited from earlier work; for aqueous (water) solubility: room temperature
[4] = oral 150 mg twice daily; cited from earlier work

solubility in βCD relative to aqueous solubility ([1]; 10 μM βCD): about 24 times
solubility in γCD relative to aqueous solubility ([1]; 25 μM γCD): about 10 times
solubility in HPβCD relative to aqueous solubility ([1]; 50 μM HPβCD): about 1000 times
solubility in HPβCD relative to maximum βCD concentration ([1]; 50 μM HPβCD vs 10 μM βCD): about 40 times
solubility in HPβCD relative to αCD and γCD ([1]; 50 μM of each CD): 100-150 times
solubility at 3 days ([1]; HPβCD solution, 50 μM HPβCD, room temperature, 3 days shaking, read-out: ivacaftor solubility in HPβCD solution): 50 µg/mL (≈ 127 µM)
solubility in βCD relative to αCD and γCD ([1]; same concentration (10 μM)): 5-6 times and 5-8 times
solubility at 3 days ([1]; βCD solution, 10 μM βCD, read-out: ivacaftor solubility in βCD solution): 1.2 µg/mL (≈ 3.06 µM)
solubility at 3 days ([1]; γCD solution, 25 μM γCD, read-out: ivacaftor solubility in γCD solution): 0.5 µg/mL (≈ 1.27 µM)
solubility [2]: 272 µg/mL (≈ 692 µM)
Structure (SMILES): CC(C)(C)c1cc(C(C)(C)C)c(NC(=O)c2c[nH]c3ccccc3c2=O)cc1O [Ivacaftor, N-(2,4-Di-tert-butyl-5-hydroxyphenyl)-4-oxo-1,4-dihydroquinoline-3-carboxamide]
log P [3]: 3.13
log P ([3]; listed as IVA): 3.3
aqueous (water) solubility [3]: about 0.05 μg/ml
aqueous (water) solubility ([3]; listed as IVA): < 0.05 µg/mL
half-life [4]: 9 to 12 h
